Laboratory results published in PMC11363342 (ACS Central Science, 2024).
Read-outs that look alike come from different tables or passages of the source.

Key:
SARS-CoV-2 [1] = type: cell-based
in vitro = conditions: African green monkey
SARS-CoV-2 [2] = test: microbe, parasite or virus in culture; type: cell-based
GBA3 = conditions: cited from earlier work
SARS-CoV-2 [3] = test: Viral load reduction assay in ALI-PBEC; type: cell-based; conditions: 48 hpi
Description: Thus, ALI-PBEC cells were infected with SARS-CoV-2 (10^5 PFU per insert; estimated MOI ∼0.1) and treated with compounds on the apical side of the cells for 2 h. For uninfected controls, PBS was used instead of virus. The compounds were also present in the basal medium during the whole experiment until 48 hpi, when samples were harvested. […] (Figure 4D).
ALI-PBEC were pretreated with compound in the basal medium for 3 h. Cells were infected with 100 000 PFU of SARS-CoV-2/Leiden0008 per insert (estimated MOI 0.1) with compounds present in the inoculum. After 2 h at 37 °C on a rocking platform, the inoculum was removed and cells were washed three times with warm PBS. Compounds stayed present in the basal medium until 48 h postinfection. At 48 hpi the viral load was determined by plaque assay on a 200 μL apical wash (PBS incubated on the apical side of the insets for 10 min at 37 °C). For assessing cytotoxicity with the CyQuant LDH cytotoxicity assay (Thermo Fisher Scientific), 10 μL of apical wash was diluted 5 times with 40 μL of PBS. A 25 μL volume of this dilution was added to 25 μL of assay reagent and incubated for 30 min at RT in the dark. The plate was fixed and measured at a wavelength of 490 nm (Envision reader, PerkinElmer). For the activity-based probe labeling, the insets were washed one more time with PBS and processed as described previously.[52] Briefly, cells were lysed with 60 μL of potassium phosphate buffer per insert. A fluorescently labeled probe (JJB383) was diluted in MclIvaine buffer (pH 7) to a 10 μM stock and incubated for 5 min on ice. For labeling of the cell lysate, 10 μL of lysate was added to 10 μL of MclIvaine buffer and 5 μL of probe. The lysate was incubated for 30 min at 37 °C before the addition of 10 μL of Laemmli sample buffer (4×). Samples were heated at 95 °C for 5 min and separated in a 10% SDS-PAGE gel. Fluorescence was measured at a wavelength of 625 nm (Cy5) with a Uvitec Alliance Q9 imager (BioSPX). After imaging, the gels were stained with GelCode Blue stain reagent (Thermo Fisher Scientific) and visualized using a Uvitec Essential V6 system to check for equal loading.

HCoV-229E = type: cell-based
[4] = system: recombinant Mus musculus α-Glu II; test: Thermal shift assay (SYPRO orange); type: binding; conditions: 10 μM Mmα-Glu-II with 50 μM inhibitor; unliganded control 49.9 °C
SARS-CoV-2 [5] = test: CPE reduction assay on H1299/ACE2 lung epithelial cells; type: cell-based; conditions: compared with Vero E6
GBA2 = conditions: cited from earlier work
GBA1 = conditions: cited from earlier work
SARS-CoV-2 [6] = test: Plaque reduction assay on H1299/ACE2 cells (time of treatment); type: cell-based; conditions: H1299/ACE2; compound 11 at 5 μM
Description: To evaluate whether compound 11 has an effect on host proteins (for instance, ACE2) involved in viral entry, we treated monolayers of H1299/ACE2 cells with compound 11 either 48 or 2 h before infection, during infection (0–1 h), or starting from 1 h postinfection (hpi). The cell monolayers were infected with ∼20 PFU of SARS-CoV-2, and after 1 h the inoculum was replaced with an overlay. In one well (Post Infection) the overlay contained compound 11. Remdesivir, a viral RNA synthesis inhibitor, was added to the overlay of another well, as a positive control for blocking virus replication in the cell.
H1299/ACE2 cells were seeded in a 6-well plate at a density of 1.3 × 10^5 cells/well (20% confluency), 96 h prior to infection. […] The monolayers were infected with ∼20 PFU of SARS-CoV-2/Leiden0008. In the postinfection treatment, the compound (or RDV) was added to the Avicel overlay. Cells were incubated for 4 days at 37 °C before fixation and crystal violet staining.

[7] = Severe acute respiratory syndrome coronavirus 2, Vero C1008, Vero E6 cells, SARS-CoV-2/Leiden0002, n = 3, mean ± SEM, read-out: EC50 (μM), SARS-CoV-2 CPE reduction
[8] = Severe acute respiratory syndrome coronavirus 2, Vero C1008, read-out: EC50 (μM), SARS-CoV-2 CPE reduction

| Compound | CC50 at 3 days (in vitro) [µM] | EC50 (SARS-CoV-2 [2]; [7]) [µM] | also measured |
| --- | --- | --- | --- |
| CCCCN1C[C@H](O)[C@@H](O)[C@H](O)[C@H]1CO [Compound 1, N-butyl-DNJ, reference compound] | > 200 | 114 ± 10.3 | reduction of infectious progeny production (in words) (SARS-CoV-2 [1]): only minimally; EC50 (SARS-CoV-2 [2]; Vero E6 cells, SARS-CoV-2/Leiden0002, n = 3, mean ± SEM, read-out: EC50 (μM), SARS-CoV-2 CPE reduction): > 100 µM; inhibition of GBA3 (GBA3): inhibits; viral load in ALI-PBEC (in words) (SARS-CoV-2 [3]; 100 μM (highest concentration)): only a slight effect |
| OC[C@@H]1[C@@H](O)[C@H](O)[C@@H](O)CN1CCCCCOCc1ccc2ccccc2c1 [Compound 2, naphthyl-deoxynojirimycin] | > 200 | 6 ± 0.4 | virus infectivity of HCoV-229E (in words) (HCoV-229E): did not show any reduction in virus infectivity; Tm/°C [4]: 63.5 °C; EC50 values in CPE reduction assay (in words) (SARS-CoV-2 [5]): comparable EC50 values; viral load in ALI-PBEC (in words) (SARS-CoV-2 [3]; 10 and 100 μM): reduced SARS-CoV-2 to similar titers |
| OC[C@@H]1[C@@H](O)[C@H](O)[C@@H](O)CN1CCCCCOCc1cc2ccccc2c2ccccc12 [Compound 3] | – | 3.25 ± 0.42 | CC50 (in vitro): 50 µM |
| OC[C@@H]1[C@@H](O)[C@H](O)[C@@H](O)CN1CCCCCOCC1CCCO1 (some centres unmarked) [Compound 4] | > 200 | 51.7 ± 3.37 | – |
| OC[C@@H]1[C@@H](O)[C@H](O)[C@@H](O)CN1CCCCCOCC12CC3CC(CC(C3)C1)C2 [Compound 5] | 200 | 13.9 ± 8 | – |
| CCCCCCOCCCCCN1C[C@H](O)[C@@H](O)[C@H](O)[C@H]1CO [Compound 6] | > 200 | 11.8 ± 0.8 | – |
| CC(C)(C)COCCCCCN1C[C@H](O)[C@@H](O)[C@H](O)[C@H]1CO [Compound 7] | > 200 | 22.7 ± 4.3 | – |
| OC[C@H]1[C@@H](O)[C@H](O)[C@@H](O)CN1CCCCCOCC12CC3CC(CC(C3)C1)C2 [Compound 8] | > 200 | 104 ± 12.4 | – |
| OC[C@@H]1[C@@H](O)[C@H](O)[C@@H](O)[C@H]2O[C@@H]12 [Compound 9, 1,6-epi-cyclophellitol] | > 200 | > 200 | inhibition of GBA2 (GBA2): partially inhibit; inhibition of GBA1 (GBA1): partially inhibit |
| OC[C@@H]1[C@@H](O)[C@H](O)[C@@H](O)[C@H]2N[C@@H]12 [Compound 10, 1,6-epi-cyclophellitol aziridine] | > 200 | 14 ± 3.2 | inhibition of GBA2 (GBA2): partially inhibit; inhibition of GBA1 (GBA1): partially inhibit |
| CO[C@@H]1[C@@H](O)[C@H](O)[C@@H](CO)[C@@H]2OS(=O)(=O)O[C@H]12 [Compound 12] | > 200 | > 200 | – |
| CO[C@H]1[C@H](O)[C@@H](CO)[C@@H]2OS(=O)(=O)O[C@@H]2[C@@H]1O [Compound 13] | > 200 | > 200 | – |
| CO[C@H]1[C@H](O)[C@@H](O)[C@H]2OS(=O)(=O)O[C@H]2[C@@H]1CO [Compound 14] | > 200 | 16.9 ± 2.1 | – |
| COC[C@@H]1[C@@H](O)[C@H](O)[C@@H](O)[C@H]2OS(=O)(=O)O[C@@H]12 [Compound 15] | > 200 | > 100 | – |
| CO[C@H]1[C@H]2OS(=O)(=O)O[C@H]2[C@H](CO)[C@@H](O)[C@@H]1OC [Compound 16] | > 200 | > 200 | – |
| O=S1(=O)N[C@H]2[C@H](CO)[C@@H](O)[C@H](O)[C@@H](O)[C@H]2O1 [Compound 17] | > 200 | 45.3 ± 1.52 | – |
| O=S1(=O)N[C@@H]2[C@H](O)[C@@H](O)[C@H](O)[C@@H](CO)[C@@H]2O1 [Compound 18] | > 200 | > 100 | – |
| O=S1(=O)N[C@@H]2[C@H](O)[C@@H](O)[C@H](O)[C@@H](CO)[C@@H]2N1 [Compound 19] | > 200 | > 200 | – |
| OC[C@H]1C[C@@H]2O[C@@H]2[C@@H](O)[C@@H]1O [Compound 20] | > 200 | 17.7 ± 1.28 | Tm/°C [4]: 64.7 °C |
| OC[C@H]1C[C@@H]2N[C@@H]2[C@@H](O)[C@@H]1O [Compound 21] | > 200 | – | Tm/°C [4]: 49.5 °C; EC50 (SARS-CoV-2 [2]; [8]): 67.6 ± 14.8 µM |
| O=S1(=O)O[C@@H]2[C@@H](O)[C@H](O)[C@@H](CO)C[C@@H]2O1 [Compound 22] | > 200 | > 200 | Tm/°C [4]: 51.7 °C |
| OC[C@H]1C[C@H]2[C@@H]([C@@H](O)[C@@H]1O)N2CCCCCOCc1ccc2ccccc2c1 (some centres unmarked) [Compound 23] | > 200 | – | EC50 (SARS-CoV-2 [2]; [8]): 64.9 ± 0.77 µM |
| OC[C@H]1C[C@H]2[C@@H]([C@@H](O)[C@@H]1O)N2CCCCCOCc1ccc(-c2ccccc2)cc1 (some centres unmarked) [Compound 24] | 200 | – | EC50 (SARS-CoV-2 [2]; [8]): 28.6 ± 0.21 µM |
| CCCC(=O)N1[C@@H]2[C@@H](O)[C@H](O)[C@@H](CO)C[C@@H]21 [Compound 25] | > 200 | 22.2 ± 4.12 | – |
| CCCCN1[C@@H]2[C@@H](O)[C@H](O)[C@@H](CO)C[C@@H]21 (some centres unmarked) [Compound 26] | > 200 | – | EC50 (SARS-CoV-2 [2]; [8]): 91.4 ± 20.6 µM |
| OC[C@H]1C[C@H]2[C@@H]([C@@H](O)[C@@H]1O)N2CCCCCOCC12CC3CC(CC(C3)C1)C2 (some centres unmarked) [Compound 27] | 100 | – | EC50 (SARS-CoV-2 [2]; [8]): 26.9 ± 1.3 µM |
| OC[C@H]1C[C@H]2[C@@H]([C@@H](O)[C@@H]1O)N2CCCCCOCc1cccc2ccccc12 (some centres unmarked) [Compound 28] | > 200 | – | EC50 (SARS-CoV-2 [2]; [8]): 56.7 ± 1.38 µM |
| COCCCCCCCCCN1C[C@H](O)[C@@H](O)[C@H](O)[C@H]1CO [UV-4, reference compound] | – | – | EC50 values in CPE reduction assay (in words) (SARS-CoV-2 [5]): comparable EC50 values |
| CCC(CC)COC(=O)[C@H](C)N[P@](=O)(OC[C@H]1O[C@@](C#N)(c2ccc3c(N)ncnn23)[C@H](O)[C@@H]1O)Oc1ccccc1 [remdesivir, reference compound] | – | – | plaque formation, treatment after infection (in the overlay) (SARS-CoV-2 [6]): prevented the formation of plaques |
